# Measurements from ChEMBL document CHEMBL4651402, “Screening of ~5500 FDA-approved drugs and clinical candidates for anti-SARS-CoV-2 activity” (2021).
# Test system: SARS-CoV-2
# Assay: microbe, parasite or virus in culture
# Settings: Severe acute respiratory syndrome coronavirus 2, Vero C1008, 48 h
SMILES,IC50,IC50 (read-out: pIC50 (converted))
C#C[C@]1(O)CCC2C3CCC4=CC(=O)CCC4C3CCC21CC (some centres undefined),> 20 µM,> 20 µM
CC(=O)OC1CC(OC2C(O)CC(OC3C(O)CC(OC4CCC5(C)C(CCC6C5CC(O)C5(C)C(C7=CC(=O)OC7)CCC65O)C4)OC3C)OC2C)OC(C)C1OC1OC(CO)C(O)C(O)C1O (centres undefined),> 20 µM,> 20 µM
COCCOCCOCCOCCOC(=O)OC[n+]1ccc(N/C(=N/CCCCCCOc2ccc(Cl)cc2)NC#N)cc1,> 20 µM,> 20 µM
O=C(Nc1ccc(C(=O)N2C[C@H]3COCCN3Cc3ccccc32)c(Cl)c1)c1ccccc1-c1ccccc1,> 20 µM,> 20 µM
C[N+](C)(C)NCCC(=O)O,> 20 µM,> 20 µM
CN(C)CCc1c[nH]c2ccccc12,> 20 µM,> 20 µM
CCN(c1ccccc1)c1cc(NC)[n+](C)c(C)n1,> 20 µM,> 20 µM
CC(=O)OCC(=O)C1CCC2C3CC=C4CC(O)CCC4(C)C3CCC12C (centres undefined),> 20 µM,> 20 µM
N=C(N)NCCNS(=O)(=O)c1cccc2cnccc12,> 20 µM,> 20 µM
CCN(CC)CCSC(=O)C(c1ccccc1)c1ccccc1,> 20 µM,> 20 µM
C(#CCN1CCCC1)CN1CCCC1,> 20 µM,> 20 µM
Nc1ccc(S(=O)(=O)O)cc1,> 20 µM,> 20 µM
CC(=O)OC1CCC2C3CCc4cc(O)ccc4C3CCC12C (centres undefined),> 20 µM,> 20 µM
Nc1nncs1,> 20 µM,> 20 µM
c1ccc2c(c1)CCCc1cc(NCCN3CCOCC3)nnc1-2,> 20 µM,> 20 µM
C[N+]1([O-])[C@@H]2C[C@@H](OC(=O)[C@H](CO)c3ccccc3)C[C@H]1[C@@H]1O[C@@H]12 (some centres undefined),> 20 µM,> 20 µM
COC(=O)CC(O)(CCC(C)(C)O)C(=O)OC1C(OC)=CC23CCCN2CCc2cc4c(cc2C13)OCO4 (centres undefined),> 20 µM,> 20 µM
CC1(C(=O)O)CCC2(C)CCC3(C)C(=CC(=O)C4C5(C)CCC(O)C(C)(C)C5CCC43C)C2C1 (centres undefined),> 20 µM,> 20 µM
COc1cc2c(cc1OC)C1Cc3ccc(OC)c(OC)c3CN1CC2 (centres undefined),> 20 µM,> 20 µM
CC(=O)SCCC(=O)N1C(C)CCCC1C(=O)O (centres undefined),> 20 µM,> 20 µM
CC(=O)NS(=O)(=O)c1ccc(NC(=O)c2ccccc2C(=O)O)cc1,> 20 µM,> 20 µM

SMILES,IC50,IC50 (read-out: pIC50 (converted))
C=C(C)CC1(CC)C(=O)NC(=S)NC1=O,> 20 µM,> 20 µM
O[C@@H](CNC[C@H](O)[C@H]1CCc2cc(F)ccc2O1)[C@@H]1CCc2cc(F)ccc2O1,> 20 µM,> 20 µM
O=c1[nH]c(=O)n(C2CC(O)C(CO)O2)cc1I (centres undefined),> 20 µM,> 20 µM
CC(C)c1ccc2c(c1)c(SC(C)(C)C)c(CC(C)(C)C(=O)O)n2Cc1ccc(Cl)cc1,> 20 µM,> 20 µM
CCC(=O)OC1CCC2C3CCC4=CC(=O)CCC4(C)C3CCC12C (centres undefined),> 20 µM,> 20 µM
CC(N)C(O)c1cccc(O)c1 (centres undefined),> 20 µM,> 20 µM
NC(COCc1ccccc1)C(=O)O (centres undefined),> 20 µM,> 20 µM
CC(C)=CCC/C(C)=C/COc1ccc2ccc(=O)oc2c1,> 20 µM,> 20 µM
COc1ccc(-c2ccc(N)[n+](CCCC(=O)O)n2)cc1,> 20 µM,> 20 µM
COc1cccc(-c2cc(=O)c3ccccc3o2)c1N,> 20 µM,> 20 µM
O[C@](Cn1cncn1)(Cn1cnc(/C=C/c2ccc(OCC(F)(F)C(F)F)cc2)n1)c1ccc(F)cc1F,> 20 µM,> 20 µM
CC(CCC(=O)O)C1CCC2C3C(=O)CC4CC(=O)CCC4(C)C3CC(=O)C12C (centres undefined),> 20 µM,> 20 µM
O=C(OCCN1CCCCCC1)C(c1ccsc1)C1CCCCC1 (centres undefined),> 20 µM,> 20 µM
C=CCN1CC[C@]23CCCCC2[C@H]1Cc1ccc(O)cc13 (some centres undefined),> 20 µM,> 20 µM
COc1ccc(CN(C(=O)[C@@H](N)Cc2c(C)cc(C(N)=O)cc2C)[C@H](C)c2nc(-c3ccccc3)c[nH]2)cc1C(=O)O,> 20 µM,> 20 µM
c1cc2c(cc1C1CCCCC1)c1c3n2CCNC3CCC1 (centres undefined),> 20 µM,> 20 µM
Clc1ccc(OC[C@@H]2CCN2)cn1,> 20 µM,> 20 µM
Nc1c(O)cccc1C(=O)CC(N)C(=O)O (centres undefined),> 20 µM,> 20 µM
CCC[C@@H]1C[C@@H](C(=O)N[C@@H]([C@H]2O[C@H](SC)[C@H](O)[C@@H](O)[C@@H]2O)[C@@H](C)O)N(C)C1,> 20 µM,> 20 µM
CC12CCC(=O)C=C1CCC1C3CCC(O)(C(=O)CO)C3(C)CC(O)C12F (centres undefined),> 20 µM,> 20 µM
COC1COCCC1N[C@@H]1CC[C@@](C(=O)N2CCc3ncc(C(F)(F)F)cc3C2)(C(C)C)C1 (some centres undefined),> 20 µM,> 20 µM

SMILES,IC50,IC50 (read-out: pIC50 (converted))
CCC(CCC(C)C1CCC2C3CC[C@H]4CC(O)CCC4(C)C3CCC12C)C(C)C (some centres undefined),> 20 µM,> 20 µM
CCOC(=O)Nc1ccc(SCC2CO[C@](Cn3ccnc3)(c3ccc(Cl)cc3Cl)O2)cc1 (some centres undefined),> 20 µM,> 20 µM
O=c1cccc2n1CC1CC2CN2CCCCC12 (centres undefined),> 20 µM,> 20 µM
CCC(CCC(C)C1CCC2C3CC=C4CC(OC(C)=O)CCC4(C)C3CCC12C)C(C)C (centres undefined),> 20 µM,> 20 µM
CC12C=CC(=O)C=C1CCC1C2CCC2(C)C1CC[C@]2(C)O (some centres undefined),> 20 µM,> 20 µM
CC(C)(C)C(O)(COc1ccc(Cl)cc1)Cn1cncn1 (centres undefined),> 20 µM,> 20 µM
NC(=S)N/N=C/c1ccncc1,> 20 µM,> 20 µM
C[C@@H]1NC(=O)C2(CCCC2)NC1=O,> 20 µM,> 20 µM
CC12CCC(=O)C=C1C=CC1C2CCC2(C)C1CCC2(O)CCC(=O)O (centres undefined),> 20 µM,> 20 µM
CC(=O)OC1(C(C)=O)CCC2C3CC(C)C4=CCCCC4(C)C3CCC21C (centres undefined),> 20 µM,> 20 µM
CCOC(=O)CN1CCN(C(=O)C=Cc2cc(OC)c(OC)c(OC)c2)CC1,> 20 µM,> 20 µM
CC(C)CCCC(C)C1CCC2C3CC[C@H]4CCCC[C@]4(C)C3CCC12C (some centres undefined),> 20 µM,> 20 µM
CN(C)S(=O)(=O)c1cc2c(c(Cl)c1Cl)OC(C(=O)O)C2 (centres undefined),> 20 µM,> 20 µM
CCC[C@H](c1ccc(C(=O)NCCC(=O)O)cc1)[C@@H](c1ccc(Cl)cc1)c1c[nH]c2c(F)cc(C)cc12,> 20 µM,> 20 µM
COC(=O)[C@H](C)N[P@](=O)(OC[C@H]1O[C@@H](n2cc(/C=C/Br)c(=O)[nH]c2=O)C[C@@H]1O)Oc1ccccc1,> 20 µM,> 20 µM
CN1C(=O)/C(=N/NC(N)=S)c2ccccc21,> 20 µM,> 20 µM
CC12CCC3C(CCC4CC(N)C(O)CC43C)C1CCC2=O (centres undefined),> 20 µM,> 20 µM
CC1(C)OC2CC3C4CC(F)C5=CC(=O)C=CC5(C)C4(Cl)C(Cl)CC3(C)C2(C(=O)CCl)O1 (centres undefined),> 20 µM,> 20 µM
CC(=O)OC1CCC2(C)C(=CCC3C2CCC2(C)C(O)CCC32)C1 (centres undefined),> 20 µM,> 20 µM
C=CCNC1=C2C[C@@H](C)C[C@H](OC)[C@H](O)[C@@H](C)/C=C(/C)[C@H](OC(N)=O)[C@@H](OC)/C=C\C=C(\C)C(=O)NC(=CC1=O)C2=O,> 20 µM,> 20 µM
CCC1(O)CC2CN(CCc3c([nH]c4ccccc34)C(C(=O)OC)(c3cc4c(cc3OC)N(C)C3C(O)(C(=O)OC)C(OC(C)=O)C5(CC)C=CCN6CCC43C65)C2)C1 (centres undefined),> 20 µM,> 20 µM

SMILES,IC50,IC50 (read-out: pIC50 (converted))
CC[C@H]1OC(=O)[C@H](C)[C@@H](O[C@H]2C[C@@](C)(OC)[C@@H](O)[C@H](C)O2)[C@H](C)[C@@H](O[C@@H]2O[C@H](C)C[C@H](N(C)C)[C@H]2O)[C@](C)(O)C[C@@H](C)C(=O)[C@H](C)[C@H]2OC(=O)O[C@@]21C,> 20 µM,> 20 µM
CC12C=CC(=O)C=C1[C@@H](F)CC1C2C(O)CC2(C)C1CCC2(O)C(=O)CO (some centres undefined),> 20 µM,> 20 µM
CC[C@@H](C)n1ncn(-c2ccc(N3CCN(c4ccc(OC[C@H]5CO[C@@](Cn6cncn6)(c6ccc(F)cc6F)O5)cc4)CC3)cc2)c1=O,> 20 µM,> 20 µM
CCC1(CC)C(=O)NC(=S)NC1=O,> 20 µM,> 20 µM
CCCCCC(=O)CCC1(C)C2Cc3ccc(O)cc3C1(C)CCN2C (centres undefined),> 20 µM,> 20 µM
COC1C(C)OC(OC2C=C3CCC4C(CCC5(C)C(c6ccc(=O)oc6)CCC45O)C3(C)CC2)C(O)C1O (centres undefined),> 20 µM,> 20 µM
CO[C@H]1/C=C\O[C@@]2(C)Oc3c(C)c(O)c4c(=O)c(c5oc6cc(N7CCN(CC(C)C)CC7)cc(O)c6nc-5c4c3C2=O)NC(=O)/C(C)=C\C=C/[C@H](C)[C@H](O)[C@@H](C)[C@@H](O)[C@@H](C)[C@H](OC(C)=O)[C@@H]1C,> 20 µM,> 20 µM
CC1CC(OC(=O)c2ccccc2)CC(C)(C)N1 (centres undefined),> 20 µM,> 20 µM
O=C(O)C(=O)Cc1c[nH]c2ccccc12,> 20 µM,> 20 µM
Cc1c(-c2cccnc2)n(CCCCCCCC(=O)O)c2ccccc12,> 20 µM,> 20 µM
Cc1cc(O)cc(=O)o1,> 20 µM,> 20 µM
COc1ccccc1-c1coc2cc(O)ccc2c1=O,> 20 µM,> 20 µM
NC(=O)Oc1ccc(Cc2ccccc2)cc1,> 20 µM,> 20 µM
COc1cc2c(cc1OC)[C@H]1CC(=O)[C@H](CC(C)C)CN1CC2,> 20 µM,> 20 µM
CC(=O)Nc1cc2ccccc2oc1=O,> 20 µM,> 20 µM
C[C@@H](N)C(=O)N[C@@H](Cc1ccccc1)C(=O)O,> 20 µM,> 20 µM
CCC(C)n1ncn(-c2ccc(N3CCN(c4ccc(OC[C@@H]5CO[C@@](Cn6cncn6)(c6ccc(Cl)cc6Cl)O5)cc4)CC3)cc2)c1=O (some centres undefined),> 20 µM,> 20 µM
CCN(CC)C(=S)SSC(=S)N(CC)CC,> 20 µM,> 20 µM
COc1ccccc1N1CCNCC1,> 20 µM,> 20 µM
